One may read the Kd as the constant that tells how readily two partners part at equilibrium. Usually GI50 stands for the concentration at which growth is held to half of that of the control. Broadly, the IC50 is the concentration that inhibits the measured activity by half.

Where two headings read alike, the source gives them in different places.

In test [1] the target is T1, EGFR T790M, L858R (amino acids 669-1011 Accession Number NP_005219.2) (Homo sapiens, UniProt P00533, L858R/T790M).
T1 construct: purchased Eurofins Discovery; host or cells: mammalian cells (HEK-293)
T1 sequence (P00533 669-1011 T790M/L858R): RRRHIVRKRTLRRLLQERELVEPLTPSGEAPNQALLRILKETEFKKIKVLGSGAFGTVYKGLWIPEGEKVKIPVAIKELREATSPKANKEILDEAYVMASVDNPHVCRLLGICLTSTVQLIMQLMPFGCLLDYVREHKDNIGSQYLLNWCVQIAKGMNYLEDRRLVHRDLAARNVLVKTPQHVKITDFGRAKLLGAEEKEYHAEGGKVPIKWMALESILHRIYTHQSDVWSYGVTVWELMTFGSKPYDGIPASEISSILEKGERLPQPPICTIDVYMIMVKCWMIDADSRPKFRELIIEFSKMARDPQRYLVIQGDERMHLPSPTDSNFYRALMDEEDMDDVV
The experiment in a line: KdELECT binding assay (Eurofins Discovery), EGFR T790M, L858R. To be noted: read-out: EGFR DM Kd. Summed up: (§1)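 Competition binding: WT kinase as T7 phage fusion from E. coli, T790M/L858R produced in HEK-293 and DNA-tagged, incubated 1 h at room temperature with immobilized ligand beads and compound (11-point 3-fold series, 0.9% DMSO). Bead-bound kinase eluted and quantified by qPCR to derive Kd.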

Test [2] deals with T2, EGFR WT (amino acids 669-1011, Accession Number NP_005219.2) (Homo sapiens, UniProt P00533).
T2 construct: purchased Eurofins Discovery; host or cells: bacteria (E. coli, BL21-derived, T7 phage)
T2 sequence (P00533 669-1011): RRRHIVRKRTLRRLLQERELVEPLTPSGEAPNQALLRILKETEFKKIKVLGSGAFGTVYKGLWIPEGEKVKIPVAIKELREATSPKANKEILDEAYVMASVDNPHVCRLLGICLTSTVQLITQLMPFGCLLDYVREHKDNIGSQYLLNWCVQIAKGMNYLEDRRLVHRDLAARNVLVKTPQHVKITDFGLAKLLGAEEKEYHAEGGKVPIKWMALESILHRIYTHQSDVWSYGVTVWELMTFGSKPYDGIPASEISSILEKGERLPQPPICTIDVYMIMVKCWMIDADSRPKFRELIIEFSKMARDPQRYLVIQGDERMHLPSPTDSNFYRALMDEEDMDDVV
Nature of the test: KdELECT binding assay (Eurofins Discovery), EGFR WT. Summed up: as §1

A further test deals with T3, EGFR (Homo sapiens, UniProt P00533).
T3 construct: purchased
T3 sequence (P00533 25-1210): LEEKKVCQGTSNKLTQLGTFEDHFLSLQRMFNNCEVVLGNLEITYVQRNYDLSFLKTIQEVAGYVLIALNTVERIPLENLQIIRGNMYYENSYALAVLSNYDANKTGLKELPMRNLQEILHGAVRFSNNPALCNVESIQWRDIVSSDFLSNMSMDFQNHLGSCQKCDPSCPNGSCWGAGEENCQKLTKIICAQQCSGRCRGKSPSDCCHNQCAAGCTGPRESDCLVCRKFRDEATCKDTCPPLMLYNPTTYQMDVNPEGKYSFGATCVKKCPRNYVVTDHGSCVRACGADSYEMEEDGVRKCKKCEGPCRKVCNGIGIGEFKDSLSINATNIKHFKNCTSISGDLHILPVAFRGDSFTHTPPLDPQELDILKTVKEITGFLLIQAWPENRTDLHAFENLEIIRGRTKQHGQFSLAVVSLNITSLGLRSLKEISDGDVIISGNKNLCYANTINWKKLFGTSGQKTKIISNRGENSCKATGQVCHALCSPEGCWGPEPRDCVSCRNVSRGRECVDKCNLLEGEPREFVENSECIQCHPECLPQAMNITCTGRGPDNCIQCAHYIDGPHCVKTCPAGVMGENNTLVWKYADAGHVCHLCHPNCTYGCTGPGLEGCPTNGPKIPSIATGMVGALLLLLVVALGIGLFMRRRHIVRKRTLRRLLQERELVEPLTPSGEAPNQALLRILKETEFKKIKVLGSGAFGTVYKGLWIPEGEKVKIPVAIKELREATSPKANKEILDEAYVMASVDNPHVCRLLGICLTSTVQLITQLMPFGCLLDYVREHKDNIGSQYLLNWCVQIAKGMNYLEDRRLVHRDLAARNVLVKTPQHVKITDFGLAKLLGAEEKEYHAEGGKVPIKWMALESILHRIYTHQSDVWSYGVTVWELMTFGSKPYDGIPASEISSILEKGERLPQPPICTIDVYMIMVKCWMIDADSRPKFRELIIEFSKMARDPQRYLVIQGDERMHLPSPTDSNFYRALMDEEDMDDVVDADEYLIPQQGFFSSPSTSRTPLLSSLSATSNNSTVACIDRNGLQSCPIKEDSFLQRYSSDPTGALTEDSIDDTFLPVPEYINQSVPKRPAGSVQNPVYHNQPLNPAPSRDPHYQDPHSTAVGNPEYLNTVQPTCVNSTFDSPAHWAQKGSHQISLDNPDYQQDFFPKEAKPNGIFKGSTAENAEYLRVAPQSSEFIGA
The experiment in a line: KdELECT binding assay, EGFR. Summed up:
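Competition binding: DNA- or T7 phage-tagged EGFR was incubated 1 h at room temperature with immobilized ligand beads and an 11-point 3-fold compound series (0.9% DMSO final). Bead-bound kinase was eluted and quantified by qPCR to derive Kd.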

Test [3] has as its target T4, full-length CDK9 (amino acids 1-372; Accession Number NP_001252.1) (Homo sapiens, UniProt P50750).
T4 construct: full-length CDK9 (amino acids 1-372); purchased; host or cells: bacteria (E. coli, BL21-derived, T7 phage)
Nature of the test: KdELECT binding assay, CDK9. How it is done:
Exemplary compounds were tested for ability to bind to full-length CDK9 (amino acids 1-372; Accession Number NP_001252.1) expressed from bacteria. Compounds were tested using a KdELECT assay.
Kinase-tagged T7 phage strains were prepared in an E. coli host derived from the BL21 strain. E. coli were grown to log-phase and infected with T7 phage and incubated with shaking at 32° C. until lysis. The lysates were centrifuged and filtered to remove cell debris. The remaining kinases were produced in HEK-293 cells and subsequently tagged with DNA for qPCR detection. Streptavidin-coated magnetic beads were treated with biotinylated small molecule ligands for 30 minutes at room temperature to generate affinity resins for kinase assays. The liganded beads were blocked with excess biotin and washed with blocking buffer (SeaBlock (Pierce), 1% BSA, 0.05% Tween 20, 1 mM DTT) to remove unbound ligand and to reduce non-specific binding. Binding reactions were assembled by combining kinases, liganded affinity beads, and test compounds in 1× binding buffer (20% SeaBlock, 0.17×PBS, 0.05% Tween 20, 6 mM DTT). Test compounds were prepared as 111× stocks in 100% DMSO. Kd values were determined using an 11-point 3-fold compound dilution series with three DMSO control points. All compounds for Kd measurements are distributed by acoustic transfer (non-contact dispensing) in 100% DMSO. The compounds were then diluted directly into the assays such that the final concentration of DMSO was 0.9%. All reactions performed in polypropylene 384-well plate. Each was a final volume of 0.02 mL. The assay plates were incubated at room temperature with shaking for 1 hour and the affinity beads were washed with wash buffer (1×PBS, 0.05% Tween 20). The beads were then re-suspended in elution buffer (1×PBS, 0.05% Tween 20, 0.5 μM nonbiotinylated affinity ligand) and incubated at room temperature with shaking for 30 minutes. The kinase concentration in the eluates was measured by qPCR.

For the next test, the system named is HEK293 cells. The experiment in a line: Cellular growth inhibition assay (CellTiter-Glo), HEK293 cells. To be noted: three days compound treatment, CellTiter-Glo 2.0, read-out: CTG HEK293 GI50. Format: cell-based. Summed up:
(§2)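 HEK293 or HeLa cells seeded at 500 cells/well in DMEM with 10% FBS, treated after 24 h with titrated compound for three days at 37 °C, 5% CO2. CellTiter-Glo 2.0 luminescence read on Day 0 and Day 3, normalized to DMSO, four-parameter fit giving GI50.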
(In general: In ATP-based viability assays light output follows the ATP content of the culture.)

Another test addresses T5, KRAS G12C (Homo sapiens, UniProt P01116, G12C).
T5 construct: Kras (aa 2-169), GST; purchased Reaction Biology Corporation (RBC)
Nature of the test: KRAS G12C nucleotide exchange assay (SOS1 mediated, HTRF). Format: biochemical. The settings on record: 1 hr pre-incubation at RT, read-out: IC50 (inhibition of KRas G12C). How it is done:
Exemplary compounds were tested for ability to inhibit KRas G12C.
KRAS target engagement (IC50 determination) was performed using a KRAS G12C nucleotide exchange assay (Reaction Biology Corporation). Specifically, compounds were tested against KRAS G12C in 10-point concentration IC50 mode with 3-fold serial dilution at a starting concentration of 10 μM. ARS1620 was used as a control. Compounds were pre-incubated with protein for 1 hr at RT. Parameters for the assay were:
In the method, Kras was mixed with a-GST Tb antibody (1.5× solution) and […] was delivered to reaction wells. Compounds were delivered using acoustic dispenser (Echo, Labcyte). Kras/aGST-Tb Ab/compound mixture was incubated for 1 hour at room temperature. A 3× solution of SOS1 and GTP* was prepared in reaction buffer. A […] aliquot of SOS1/GTP* solution was added to reaction well to initiate the exchange reaction. No—SOS1 reaction or max compound concentration was used as blank. IC50 determination was performed using a Sigmoidal dose response (variable slope) equation.
Background: In TR-FRET formats the signal depends on donor and acceptor labels being close together.

The subject of another test is HeLa cells. The experiment in a line: Cellular growth inhibition assay (CellTiter-Glo), HeLa cells. The settings on record: three days compound treatment, CellTiter-Glo 2.0, read-out: CTG HELA GI50. Format: cell-based. Summed up: as §2

T4 sequence (P50750 whole entry, the tested form may be a part): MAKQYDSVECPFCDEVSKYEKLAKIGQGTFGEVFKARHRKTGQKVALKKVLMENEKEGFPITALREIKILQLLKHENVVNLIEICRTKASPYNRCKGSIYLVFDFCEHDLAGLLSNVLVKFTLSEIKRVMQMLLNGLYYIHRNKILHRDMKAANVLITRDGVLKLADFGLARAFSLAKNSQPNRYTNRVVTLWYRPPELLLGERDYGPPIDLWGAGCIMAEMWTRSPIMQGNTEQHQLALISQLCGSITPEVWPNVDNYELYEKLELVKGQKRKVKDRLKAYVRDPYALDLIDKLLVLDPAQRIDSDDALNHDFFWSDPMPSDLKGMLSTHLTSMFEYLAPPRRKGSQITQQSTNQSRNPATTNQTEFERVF
T5 sequence (P01116 2-169 isoform P01116-2 G12C): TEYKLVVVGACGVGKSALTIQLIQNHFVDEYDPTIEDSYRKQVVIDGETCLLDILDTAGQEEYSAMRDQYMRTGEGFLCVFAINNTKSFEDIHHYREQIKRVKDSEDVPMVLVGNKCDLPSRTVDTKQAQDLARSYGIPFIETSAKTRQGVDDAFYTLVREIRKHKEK

Take `C=CC(=O)Nc1cc(Nc2nccc(-c3cn(C)c4ccccc34)n2)c(OC)cc1N(C)CCN(C)CCOCCOCCNS(=O)(=O)c1ccc(Nc2ncc(Br)c(Nc3cccc(F)c3C(N)=O)n2)cc1` [Compound I-33, 2-[[5-bromo-2-[4-[2-[2-[2-[2-[5-methoxy-N-methyl-4-[[4-(1-methylindol-3-yl)pyrimidin-2-yl]amino]-2-(prop-2-enoylamino)anilino]ethyl-methyl-amino]ethoxy]ethoxy]ethyl-sulfamoyl]anilino]pyrimidin-4-yl]amino]-6-fluoro-benzamide]: the Kd was below 50 nM in test [1], 50 to 500 nM in test [2], below 50 nM at EGFR and 500 to 2500 nM in test [3].

On to `C=C(F)C(=O)N1CCN(c2nc(OC[C@@H]3CCCN3CCCOCCOCCOCCOCCOCCOCCOCCOCCN(C)C(=O)N3N=C(c4cc(F)ccc4F)S[C@@]3(CCCN)c3ccccc3)nc3c2CCN(c2cccc4cccc(Cl)c24)C3)C[C@@H]1CC#N` [Compound I-101], for which the GI50 in the test with HEK293 cells and in the test with HeLa cells was 1500 to 5000 nM in each case. For the same molecule, on KRAS G12C, the half-inhibitory concentration (IC50) was below 100 nM.

Take `C=C(F)C(=O)N1CCN(c2nc(OC[C@@H]3CCCN3CCCN3CCN(CCNC(=O)c4ccc(Nc5ncc6c(n5)N(C5CCCC5)[C@H](CC)C(=O)N6C)c(OC)c4)CC3)nc3c2CCN(c2cccc4cccc(Cl)c24)C3)C[C@@H]1CC#N` [Compound I-106, N-[2-[4-[3-[(2S)-2-[[7-(8-chloro-1-naphthyl)-4-[(3S)-3-(cyanomethyl)-4-(2-fluoroprop-2-enoyl)piperazin-1-yl]-6,8-dihydro-5H-pyrido[3,4-d]pyrimidin-2-yl]oxymethyl]pyrrolidin-1-yl]propyl]piperazin-1-yl]ethyl]-4-[[(7R)-8-cyclopentyl-7-ethyl-5-methyl-6-oxo-7H-pteridin-2-yl]amino]-3-methoxy-benzamide]: the 50% growth inhibitory concentration (GI50) in the test with HEK293 cells (Homo sapiens, 72 h) was 500 to 1500 nM; in the test with HeLa cells (Homo sapiens, 72 h), 500 to 1500 nM. The IC50 at KRAS G12C was below 100 nM.

Take `CC[C@@H]1C(=O)N(C)c2cnc(Nc3ccc(C(=O)NCCOCCOCCN(C)C/C=C/C(=O)N4CCN(c5nc(OC[C@@H]6CCCN6C)nc6c5CCN(c5cccc7cccc(Cl)c57)C6)C[C@@H]4CC#N)cc3OC)nc2N1C1CCCC1` [Compound I-107, N-[2-[2-[2-[[(E)-4-[(2S)-4-[7-(8-chloro-1-naphthyl)-2-[[(2S)-1-methylpyrrolidin-2-yl]methoxy]-6,8-dihydro-SH-pyrido[3,4-d]pyrimidin-4-yl]-2-(cyanomethyl)piperazin-1-yl]-4-oxo-but-2-enyl]-methyl-amino]ethoxy]ethoxy]ethyl]-4-[[(7R)-8-cyclopentyl-7-ethyl-5-methyl-6-oxo-7H-pteridin-2-yl]amino]-3-methoxy-benzamide]: the GI50 with HEK293 cells (Homo sapiens, 72 h) is below 500 nM; in the test with HeLa cells (Homo sapiens, 72 h) it was below 500 nM. Besides, the IC50 at KRAS G12C was below 100 nM.

Regarding `CC[C@@H]1C(=O)N(C)c2cnc(Nc3ccc(C(=O)NCCOCCOCCOCCOCCOCCOCCN(C)C/C=C/C(=O)N4CCN(c5nc(OC[C@@H]6CCCN6C)nc6c5CCN(c5cccc7cccc(Cl)c57)C6)C[C@@H]4CC#N)cc3OC)nc2N1C1CCCC1` [Compound I-109, N-[2-[2-[2-[2-[2-[2-[2-[[(E)-4-1[(2S)-4-1[7-(8-chloro-1-naphthyl)-2-[[(2S)-1-methylpyrrolidin-2-yl]methoxy]-6,8-dihydro-5Hpyrido1[3,4-d]pyrimidin-4-yl]-2-(cyanomethyl)piperazin-1-yl]-4-oxo-but-2-enyl]-methylamino]ethoxy]ethoxy]ethoxy]ethoxy]ethoxy]ethoxy]ethyl]-4-[[(7R)-8-cyclopentyl-7-ethyl-5-methyl-6-oxo-7H-pteridin-2-yl]amino]-3-methoxy-benzamide], the GI50 is 1500 to 5000 nM in the test on HEK293 cells (Homo sapiens, 72 h) and 500 to 1500 nM in the test on HeLa cells (Homo sapiens, 72 h). Further, the IC50 at KRAS G12C was below 100 nM.

With `CC[C@@H]1C(=O)N(C)c2cnc(Nc3ccc(C(=O)NCCOCCOC4CCN(C/C=C/C(=O)N5CCN(c6nc(OC[C@@H]7CCCN7C)nc7c6CCN(c6cccc8cccc(Cl)c68)C7)C[C@@H]5CC#N)CC4)cc3OC)nc2N1C1CCCC1` [Compound I-110, N-[2-[2-[[1-[(E)-4-[(2S)-4-[7-(8-chloro-1-naphthyl)-2-[[(2S)-1-methylpyrrolidin-2-yl]methoxy]-6,8-dihydro-5H-pyrido[3,4-d]pyrimidin-4-yl]-2-(cyanomethyl)piperazin-1-yl]-4-oxo-but-2-enyl]-4-piperidyl]oxy]ethoxy]ethyl]-4-[[(7R)-8-cyclopentyl-7-ethyl-5-methyl-6-oxo-7H-pteridin-2-yl]amino]-3-methoxy-benzamide], the 50% growth inhibitory concentration (GI50) with HEK293 cells (Homo sapiens, 72 h) fell in the range of 500 to 1500 nM; in the test with HeLa cells (Homo sapiens, 72 h) it was 500 to 1500 nM. For the same molecule, the IC50 at KRAS G12C was below 100 nM.

In the case of `C=CC(=O)Nc1cc(Nc2nccc(-c3cn(C)c4ccccc34)n2)c(OC)cc1N(C)CCN(C)CCOCCOCCOCCOCCOc1ccc(CNc2cc(N3CCCC[C@H]3CCO)nc3c(CC)cnn23)cn1` [Compound I-132], the Kd was below 50 nM in test [1], 50 to 500 nM in test [2], 50 to 500 nM at EGFR and below 50 nM in test [3]. Moreover, the 50% growth inhibitory concentration (GI50) was below 500 nM in the test with HEK293 cells (Homo sapiens, 72 h) and below 500 nM in the test on HeLa cells (Homo sapiens, 72 h).

With `C=CC(=O)N[C@@H]1CN(c2nc(Nc3cn(CCOCCOCCOCCOCCNS(=O)(=O)c4ccc(Nc5ncc(Br)c(Nc6cccc(F)c6C(N)=O)n5)cc4)nc3OC)c3ncn(C)c3n2)C[C@H]1F` [Compound I-138, 2-[[5-bromo-2-[4-[2-[2-[2-[2-[2-[4-[[2-[(3R,4R)-3-fluoro-4-(prop-2-enoylamino)pyrrolidin-1-yl]-9-methyl-purin-6-yl]amino]-3-methoxy-pyrazol-1-yl]ethoxy]ethoxy]ethoxy]ethoxy]ethylsulfamoyl]anilino]pyrimidin-4-yl]amino]-6-fluoro-benzamide], the dissociation constant Kd is below 50 nM in test [1], below 50 nM in test [2], below 50 nM at EGFR and 500 to 2500 nM in test [3]. Moreover, the concentration for 50% growth inhibition (GI50) was above 5000 nM with HEK293 cells (Homo sapiens, 72 h) and above 5000 nM in the test on HeLa cells (Homo sapiens, 72 h).

For the origin of these results see patent publication US20250032623A1, “HETEROBIFUNCTIONAL COMPOUNDS AND THEIR USE IN TREATING DISEASE” (HALDA THERAPEUTICS OPCO, INC., priority 2021, published 2025).
